# Test results: patent US6423869B1, “Polyol-amino acid compounds having anti-helicobacter pylori activity” (Takeda Chemical Industries, Inc., priority 1997, dated 2002)
# Assays:
# [1] = test system: gram-negative bacteria; conditions: cited from earlier work
# [2] = test system: Helicobacter pylori TN2GF4; assay: Gastric infection in mongolian gerbils, repetitive administration; assay type: in vivo
# Procedure: Five-week-old MON/Jms/Gbs mongolian gerbils were inoculated intragastrically with 10^7.58 CFU of Helicobacter pylori TN2GF4. Four weeks after infection, a compound of the Example 47, suspended in 0.5% methyl cellulose, was administered orally at a dose of 30 mg/kg twice daily for 2 days. The animals were killed on the day after the final treatment. Stomachs were removed and homogenized with 3 ml of brucella broth, and the bacterial count in the homogenates was determined by serial dilution and titration on modified Skirrow's plates. The plates were incubated at 37° C. for 4 days in a microaerobic atmosphere prior to counting. No detectable Helicobacter pylori in the stomach on the day after final treatment was defined as clearance. Effect of repetitive administration of a compound of the Example 47 against gastric infection caused by H. pylori TN2GF4 in MON/JmsIGbs mongolian gerbils
# [3] = test system: Helicobacter pylori (NCTC 11637); assay: In vitro antibacterial test, agar dilution method (MIC); assay type: cell-based; conditions: NCTC11637, 96 h, 7% horse blood-Brucella agar, 37° C., 4 days, read-out: MIC (minimal inhibitory concentration)
# [4] = test system: Helicobacter pylori TN2F4; assay: In vivo antibacterial test in infected mice; conditions: mice (Crj: ICR), 50 mg/kg orally twice daily for 2 days, cleared/total (%), hydrochloride
# Procedure: In vivo Antibacterial Test
# Mice (Crj: ICR, male, aged 5 weeks) were deprived of food for 20 hours and 6.17×10^7 CFU/mouse of Helicobacter pylori TN2F4 was inoculated into the stomach. Starting 11 days after infection, 50 mg/kg of the test compound suspended in 0.5% methyl cellulose/water was adminstered orally twice. daily, in the morning and evening, for 2 consecutive days. On the day following the last dose, the stomach was isolated from the infected mouse and homogenized and a 10-fold dilution series of the homogenate was inoculated on activated charcoal-modified Skirrow medium. Cultivation was carried out microaerobically at 37° C. for 4 days and the eradication rate was determined according to growth of the bacteria.
# The number of bacteria was expressed in mean±standard error and the statistical analysis was made in comparison with the control group by the Dunnett method.
# [5] = 30 mg/kg twice daily for 2 days
smiles,measurement,setting,value
NCC1OC(OC2C(N)CC(NC(=O)C(O)C(O)C(O)C(N)CO)C(O)C2OC2OC(CO)C(O)C2O)C(N)C(O)C1O (stereo not shown),activity against gram-negative bacteria,[1],active against gram-negative bacteria
"C=CC[C@H](N)C(=O)N[C@@H](CO)[C@@H](O)[C@@H](O)[C@H](O)C(=O)N[C@@H](CC(=O)O)c1ccccc1 [Example 47, (S)-3-[(2S,3R,4R,5S)-5-((S)-2-amino-4-pentenoyl)amino-2,3,4,6-tetrahydroxyhexanoyl]amino-3-phenylpropionic acid]",clearance attained (gerbils cleared out of total),[2]; [5],2 out of 4
same,number of infecting organism,[2]; [5],decreased the number of infecting organism
same,Bacterial recovery Log CFU/gastric wall Mean ± SE,"[2]; MON/Jms/Gbs mongolian gerbils, 30 mg/kg orally twice daily for 2 days",2.23 ± 0.44 Log CFU/gastric wall
"CC(C)C[C@H](NC(=O)[C@@H](NC(=O)[C@@H](N)C(C)C)C(C)C)C(=O)N[C@@H](CO)[C@@H](O)[C@@H](O)[C@H](O)C(=O)N[C@@H](CC(=O)O)c1ccccc1 [HC-70I, (S)-3-[(2S,3R,4R,5S)-2,3,4,6-tetrahydroxy-5-(L-valyl-L-valyl-L-leucyl)aminohexanoyl]amino-3-phenylpropionic acid]",MIC,[3],0.025 µg/mL
"CC(C)C[C@H](NC(=O)[C@@H](N)C(C)C)C(=O)N[C@@H](CO)[C@@H](O)[C@@H](O)[C@H](O)C(=O)N[C@@H](CC(=O)O)c1ccccc1 [HC-70II, (S)-3-[(2S,3R,4R,5S)-2,3,4,6-tetrahydroxy-5-(L-valyl-L-leucyl)aminohexanoyl]amino-3-phenylpropionic acid]",MIC,[3],0.025 µg/mL
"CC(C)C[C@H](NC(=O)[C@@H](N)C(C)C)C(=O)N[C@@H](CO)[C@@H](O)[C@@H](O)[C@H](O)C(=O)N[C@@H](CC(=O)O)c1ccccc1.Cl [HC-70II.HCl, (S)-3-[(2S,3R,4R,5S)-2,3,4,6-tetrahydroxy-5-(L-valyl-L-leucyl)aminohexanoyl]amino-3-phenylpropionate hydrochloride]",Clearance rate (%),[4],100%
